Experiments:
STING AQ = molecular target: T1, STING AQ (Homo sapiens, UniProt Q86WV6, G230A/H232R/R293Q); experiment: 293T STING digitonin reporter assay (AQ haplotype); type: cell-based; conditions: digitonin permeabilised 293T reporter cells
T1 construct: expressed in transfected cells
Procedure: (§1) Digitonin Assay with 293T Reporter Cells. The generation of 293T reporter cells stably expressing different STING protein haplotypes (WT, HAQ, REF, AQ, or Q) was described previously (Novotna et al, J. Med. Chem. 2019,62, 10676). The cells were seeded at a density of 250 000 cells per cm^2 into 96 well white poly(D-lysine) coated plates in 100 µL of DMEM with high glucose supplemented with 10% heat inactivated FBS. Next day, the medium was removed, and compounds were added in 3-fold serial dilutions in a digitonin buffer containing 50 mM HEPES (pH 7.0), 100 mM KCl, 3 mM MgClz, 0.1 mM DTT, 85 mM sucrose, 0.2% (w/w) BSA, 1 mM ATP, 0.1 mM GTP, and 10 µg/mL digitonin A. After 30 min incubation at 37 °C with 5% CO2, the digitonin buffer was removed, cells were washed once with 100 µL of the cultivation medium, and 100 µL of fresh medium was added to each well. The plates with cells were further incubated for 5 h at 37 °C with 5% CO2. Thereafter, 50 µL of the medium was removed, and 30 µL of Bright-Glo Luciferase Assay System reagent was added to each well. […] Nonlinear regression curve fit with standard slope was used for EC50 value calculations. The EC50 value represents CDN concentration that gives half-maximal response of firefly luciferase in the 293T reporter assay.

[1] = system: STING-dependent cytokine IP10 (CXCL10) in HCC1954 cells; experiment: IP10 (CXCL10) induction in HCC1954 cells; type: cell-based, human; conditions: free Warhead CDN, no antibody
Procedure: (§2) HCC1954 and 293T reporter cells were cultured as previously described. HCC1954 cells, which naturally express both Her2 and TROP2, were seeded into collagen-coated 96-well plates at a density of 0.5×10^6 cells/ml (100 µl/well) in RPMI medium supplemented with 10% FBS and Penicillin/Streptomycin. The following day, the medium was completely removed, and serial dilutions of mAb2-CDN and mAb5-CDN conjugates in medium were added to the wells. Levels of the STING-dependent cytokine IP10 (CXCL10) induction were determined in the medium using ProcartaPlex Immunoassays after 24 hours of incubation following the manufacturer's protocol and measured on a MagPix instrument. […] Nonlinear regression curve fitting was applied for EC50 value calculations. The EC50 value represents the concentration of the payload CDN 2.2 conjugated to anti-Her2 mAb2 or anti-TROP2 mAb5 that results in half-maximal levels of IP-10. Twenty million 293T WT STING reporter cells were seeded into two T150 flasks, each containing 30 mL of DMEM with high glucose supplemented with 10% heat-inactivated FBS. One flask was designated for transfected cells, and the other served as a non-transfected control. After 24 hours, the cell culture medium was replaced with 27 mL of fresh media. […] A 50 µL mixture was transferred to white 96-well plates, and luminescence was measured using a TECAN reader.

AH1+ CD8+ T cells = experiment: Induction of tumor specific AH1+ CD8 T cells in CT26 model (flow cytometry); type: in vivo, BALB/c mice; conditions: blood collected on day 14, i.t. treatment
Text: The induction of tumor specific AH1+ CD8 T cells was monitored in response to Compound 2.2 treatment. Blood immune cells were collected on day 14 and red blood cells were lysed using red blood cell lysis buffer. Immune cells were immunophenotyped using viability dye (Zombie NIR Fixable Viability Kit, BioLegend) and monoclonal antibodies: BUV395 rat anti-mouse CD19, BUV395 hamster anti-mouse CD49b, APC hamster anti-mouse CD3, BV605 rat anti-mouse CD4, BV510 rat anti-mouse CD8, (all BD Biosciences). Specific staining using MHC-I dextramer: PE labelled AH1 peptide ([…], Immudex) was performed according to the manufacturer's recommendation. Specific and control samples of unstained cells, positive control for dead cells (cells in PBS incubated for 10 min at 65 °C and further stained with a live/dead marker), fluorescence minus one (FMO) and isotype controls (ISO) were prepared. Samples were measured immediately without a fixation step in a single tube format using BD LSRFortessa flow cytometer (BD Biosciences) in 250 µl of FC buffer (PBS containing 5% FBS). Data was acquired using FACS Diva software (version 8.0.1, BD Biosciences). Debris was excluded by forward and side scatter gating followed by doublet and dead cell exclusion. […] The data were analyzed using FlowJo software (version 10, BD Biosciences) and expressed as a frequency (%) of parent population, i.e. CD3+ T cells.

STING WT = molecular target: T2, STING WT (Homo sapiens, UniProt Q86WV6, H232R); experiment: 293T STING digitonin reporter assay (WT haplotype); type: cell-based; conditions: digitonin permeabilised 293T reporter cells
T2 construct: expressed in transfected cells
Procedure: as §1

STING REF = molecular target: T3, STING REF (Homo sapiens, UniProt Q86WV6); experiment: 293T STING digitonin reporter assay (REF haplotype); type: cell-based; conditions: digitonin permeabilised 293T reporter cells
T3 construct: expressed in transfected cells
Procedure: as §1

[2] = system: 293T WT STING reporter cells expressing TROP2; experiment: 293T WT STING reporter cells transiently expressing TROP2, luciferase; type: cell-based; conditions: free Warhead CDN, no antibody; TROP2+ 293T reporter cells
Procedure: as §2, with “IP-10.” for “IP-10. Twenty million 293T WT STING reporter cells were seeded into two T150 flasks, each containing 30 mL of DMEM with high glucose supplemented with 10% heat-inactivated FBS. One flask was designated for transfected cells, and the other served as a non-transfected control. After 24 hours, the cell culture medium was replaced with 27 mL of fresh media.”
EC50 values were calculated from an 8-point dose-response curve using GraphPad Prism (La Jolla, USA) with nonlinear regression curve fitting. The EC50 represents the concentration of the payload CDN 2.2 conjugated to anti-Her2 mAb2 or anti-TROP2 mAb5 that results in half-maximal levels of luminescence.

T3 sequence (Q86WV6 whole entry): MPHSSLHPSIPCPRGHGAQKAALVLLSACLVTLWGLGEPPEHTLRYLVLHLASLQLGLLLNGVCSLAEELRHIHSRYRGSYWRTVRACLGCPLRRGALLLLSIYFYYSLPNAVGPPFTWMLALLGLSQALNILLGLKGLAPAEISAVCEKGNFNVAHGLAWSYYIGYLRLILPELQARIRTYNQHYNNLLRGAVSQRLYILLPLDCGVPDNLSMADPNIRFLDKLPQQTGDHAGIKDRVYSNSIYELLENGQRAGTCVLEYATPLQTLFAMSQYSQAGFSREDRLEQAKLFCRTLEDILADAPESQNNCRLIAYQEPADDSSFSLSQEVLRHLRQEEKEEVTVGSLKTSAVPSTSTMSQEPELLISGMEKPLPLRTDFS
T2 sequence (Q86WV6 whole entry H232R): as the sequence (Q86WV6 whole entry) above, with H232R counted along it
T1 sequence (Q86WV6 whole entry G230A/H232R/R293Q): as the sequence (Q86WV6 whole entry) above, with G230A, H232R, R293Q counted along it

Nc1ncnc2c1ncn2[C@@H]1O[C@@H]2OCP(=O)(S)O[C@@H]3[C@H](F)[C@@H](COP(=O)(S)OC[C@H]2[C@H]1F)O[C@H]3n1cnc2c(=O)[nH]cnc21 (single isomer, unassigned) [Compound 2.2]
EC50 (STING AQ): 30 nM | EC50 [1]: 1700 nM | frequency of tumor specific CD8 T cell recognizing AH1 peptide compared to the vehicle arm (AH1+ CD8+ T cells): statistically significantly increased frequency | EC50 (STING WT): 20 nM | EC50 (STING REF): 50 nM | EC50 [2]: 700 nM
